US20070032502A1, “Quinazoline derivatives useful in cancer treatment” (Schering Corporation, priority 2005, published 2007)
Read-outs that look alike come from different tables or passages of the source. Blank lines part the entries; values can stand above or below the compound they belong to.

How the values were obtained:
MB468 = assay: Proliferation assay (Calcein AM viability, 72 hours); type: cell-based
Procedure: This assay measures the growth suppression effects of small molecules in cells with mutant p53 vs. p53 null background. It uses Calcein AM to measure cellular viability. Cells (p53 null and mutant) are harvested and plated at 5000 cells per well in a 96-well tissue culture plate. The volume of cells in growth media is 100 µl. Serial dilutions (2× concentration) of compounds are then made and transferred to the plate of cells. The volume of compounds in the growth media is 100 μL. This dilution of compound with cells gives a 1× final dilution of compound (200 μL total volume). Plates are then incubated at 37° C. for 72 hours. Media is then poured off and Calcein AM is added at the appropriate concentration and the plates are incubated in the dark for 15 minutes and read for fluorescence. […] Compounds having EC50 values of 6 uM or higher have been assigned the letter “D”. These letter rating has been used throughout in the data tables above.

[1] = target: GST-p53 DNA binding domain (aa 92-aa 312) (Homo sapiens, UniProt P04637); assay: Scintillation Proximity Assay (SPA), displacement of 3H STANDARD COMPOUND; details: for remaining activity at 2 µg/mL: 1 h
GST-p53 DNA binding domain (aa 92-aa 312), sequence (P04637 92-312): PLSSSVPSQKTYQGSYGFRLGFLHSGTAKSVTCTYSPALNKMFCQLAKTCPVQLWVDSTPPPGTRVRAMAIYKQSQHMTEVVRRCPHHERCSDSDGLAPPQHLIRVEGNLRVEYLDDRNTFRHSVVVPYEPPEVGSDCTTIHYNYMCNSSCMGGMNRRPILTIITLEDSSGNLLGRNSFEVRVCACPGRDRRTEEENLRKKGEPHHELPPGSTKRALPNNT
Description: Most of the oncogenic mutants of the tumor suppressor protein p53 lack sequence specific DNA binding activity at physiological temperature due to conformational changes in the DNA binding domain. Small molecules and peptide which bind to the p53 DNA binding domain stabilize the conformation and restore DNA binding activity to mutant p53 protein (Science 286, 2507-2510, 1999; PNAS, 99, 937-942, 2002). Using ^3H STANDARD COMPOUND (which is ^3H of the compound #1 of the present invention; the * Carbon atom is the one labeled; structure shown below), [drawing 2234] a radio labeled small molecule which binds to p53, and the GST-p53 DNA binding domain (aa 92-aa 312), we have developed a quantitative screening assay. The assay is based on Scintillation Proximity Assay (SPA) technology, developed by Amersham Biosciences to measure molecular interactions. Briefly, the complex of GST-p53, ^3H STANDARD and Glutathione-SPA beads (Amersham Biosciences) are incubated with mixing for 1 hr at room temperature in the presence of the novel compounds to be screened. The signal is read on Microbeta. The compounds which have the ability to displace ^3H STANDARD COMPOUND are selected. Such molecules will stabilize the conformation and restore DNA binding activity to mutant p53 protein.
The above assay was used to determine the ability of the compounds of this invention to restore DNA binding activity to mutant p53 and the results for selected compounds have been given above in various tables.
A letter rating corresponding to % Residual total binding (T) @ 2 ug/mL of drug (i.e., compound of the present invention) from this assay have been assigned as follows: Compounds having % Residual T values of from 0% to less than 20% have been assigned the letter “A”. Compounds having % Residual T values of from 20% to less than 40% have been assigned the letter “B”. Compounds having % Residual T values of from 40% to less than 80% have been assigned the letter “C”. Compounds having % Residual T values of 80% or higher have been assigned the letter “D”. The exact % Residual T values @ 2 ug/mL for some illustrative compounds are shown below: […]

[2] = 72 h, MB468 cells, 72 hours, read-out: PROLIFERATION ASSAY EC50 MB468
[3] = 2 ug/mL of drug, lower is better, read-out: % Residual T @ 2 ug/mL rating according to scintillation proximity assay (SPA)
[4] = MB468, read-out: PROLIFERATION ASSAY EC50 MB468

Structure (SMILES): Cc1cc(C)c(NC(=O)N2CCN(Cc3nc(NCCCN(C)C)c4ccccc4n3)CC2)c(C)c1 [Example 28-4]
EC50 (MB468; MB168 [sic], read-out: PROFILERATION ASSAY EC50 MB168): 4 to 6 µM
SPA ASSAY (% Residual T @ 2 ug/mL of drug (average of)) ([1]; 2 ug/mL of drug): C (Compounds having % Residual T values of from 40% to less than 80% have been assigned the letter “C”)

remaining activity at 2 µg/mL ([1]; 2 ug/mL of drug, lower is better, read-out: SPA ASSAY % Residual T @ 2 ug/mL of drug (Average of)): 38.1%
Structure (SMILES): CCC(C)(C)C1CCC(N2CCN(Cc3nc(NCCCN(C)C)c4ccccc4n3)CC2)CC1 (centres unmarked) [Example 25-90]
EC50 (MB468; [2]): 2 µM
EC50 (MB468; MB468 cells, read-out: PROFILE-RATION ASSAY EC50 MB468): 2 to 4 µM
SPA Assay (% residual T @ 2 ug/mL of drug) ([1]; 2 ug/mL of drug): B (Compounds having % Residual T values of from 20% to less than 40% have been assigned the letter “B”)

remaining activity at 2 µg/mL [1, 3]: > 80%
Structure (SMILES): CN(C)CCC[C@H](Nc1nc(CN2CCN(C(c3ccc(Cl)cc3)c3ccc(Cl)cc3)CC2)nc2ccccc12)C(N)=O [Example 46, 2(S)-(+)-2-(2-{4-[BIS-(4-CHLOROPHENYL)METHYL]PIPERAZIN-1-YLMETHYL}QUINAZOLIN-4-YLAMINO)-5-DIMETHYLAMINOPENTANAMIDE]

remaining activity at 2 µg/mL ([1]; read-out: SPA ASSAY (% residual T @ 2 ug/mL of drug)): > 80%
Structure (SMILES): OC1CCN(c2nc(CN3CCN(C(c4ccc(Cl)cc4)c4ccc(Cl)cc4)CC3)nc3ccccc23)C1 (centres unmarked) [Example 30-4]
EC50 (MB468; [4]): > 6 µM

remaining activity at 2 µg/mL [1, 3]: 40 to 80%
Structure (SMILES): CN(C)CCCC[C@H](Nc1nc(CN2CCN(C(c3ccc(Cl)cc3)c3ccc(Cl)cc3)CC2)nc2ccccc12)C(N)=O [Example 47, 2(S)-(+)-2-(2-{4-[BIS-(4-CHLOROPHENYL)METHYL]PIPERAZIN-1-YLMETHYL}QUINAZOLIN-4-YLAMINO)-6-DIMETHYLAMINOHEXANAMIDE]

Structure (SMILES): CN(C)CCCNc1nc(CN2CCN(C(c3ccccc3)c3ccc(OC(F)(F)F)cc3)CC2)nc2ccccc12 (centres unmarked) [Example 11-2]
EC50 (MB468; [2]): 1.6 µM

Structure (SMILES): Clc1ccc(C(c2ccc(Cl)cc2)N2CCN(Cc3nc(N4CCN(c5ncccn5)CC4)c4ccccc4n3)CC2)cc1 [Example 30-17]
EC50 (MB468; [4]): > 6 µM

Structure (SMILES): CN(Cc1ccccc1)c1nc(CN2CCN(C(c3ccc(Cl)cc3)c3ccc(Cl)cc3)CC2)nc2ccccc12 [Example 30-11]
EC50 (MB468; [4]): > 6 µM

Structure (SMILES): Clc1ccc(C(c2ccc(Cl)cc2)N2CCN(Cc3nc(N4CCN(Cc5ccccc5)CC4)c4ccccc4n3)CC2)cc1 [Example 30-20]
EC50 (MB468; [4]): 2 to 4 µM

remaining activity at 2 µg/mL [1, 3]: 40 to 80%
Structure (SMILES): CCOC(=O)[C@H](CCN(C)C)Nc1nc(CN2CCN(C(c3ccc(Cl)cc3)c3ccc(Cl)cc3)CC2)nc2ccccc12 [Example 44, 2(S)-(+)-2-(2-{4-[bis-(4-chlorophenyl)methyl]piperazin-1-ylmethyl}quinazoline-4-ylamino)-4-dimethylaminobutyric acid ethyl ester]

Structure (SMILES): Clc1ccc(C(c2ccc(Cl)cc2)N2CCN(Cc3nc(N4CCN(c5ccccc5)CC4)c4ccccc4n3)CC2)cc1 [Example 30-15]
EC50 (MB468; [4]): 4 to 6 µM

Structure (SMILES): COc1ccc(/C=C/c2nc(NCCCN(C)C)c3ccccc3n2)cc1 [CP-31398, reference compound]
EC50 (MB468; [2]): 4.1 µM

Structure (SMILES): Clc1ccc(C(c2ccc(Cl)cc2)N2CCN(Cc3nc(N4CCc5ccccc5C4)c4ccccc4n3)CC2)cc1 [Example 30-12]
EC50 (MB468; [4]): > 6 µM

Structure (SMILES): CN(CCC1C=Nc2ccccc21)c1nc(CN2CCN(C(c3ccc(Cl)cc3)c3ccc(Cl)cc3)CC2)nc2ccccc12 (centres unmarked) [Example 30-18]
EC50 (MB468; [4]): 2 to 4 µM

Structure (SMILES): Clc1ccc(C(c2ccc(Cl)cc2)N2CCN(Cc3nc(N4CCCCCC4)c4ccccc4n3)CC2)cc1 [Example 30-5]
EC50 (MB468; [4]): 2 to 4 µM

Structure (SMILES): Clc1ccc(C(c2ccc(Cl)cc2)N2CCN(Cc3nc(N4CCC(Cc5ccccc5)CC4)c4ccccc4n3)CC2)cc1 [Example 30-19]
EC50 (MB468; [4]): 4 to 6 µM

remaining activity at 2 µg/mL [1, 3]: 40 to 80%
Structure (SMILES): CN(C)CC[C@H](Nc1nc(CN2CCN(C(c3ccc(Cl)cc3)c3ccc(Cl)cc3)CC2)nc2ccccc12)C(N)=O [Example 43, 2(S)-(−)-2-(2-{4-[BIS-(4-CHLOROPHENYL)METHYL]PIPERAZIN-1-YLMETHYL}QUINAZOLIN-4-YLAMINO)-4-DIMETHYLAMINOBUTYRAMIDE]

remaining activity at 2 µg/mL [1, 3]: > 80%
Structure (SMILES): CC(C)COC(=O)[C@H](CCCN(C)C)Nc1nc(CN2CCN(C(c3ccc(Cl)cc3)c3ccc(Cl)cc3)CC2)nc2ccccc12 [Example 45, 2(S)-(−)-2-(2-{4-[BIS-(4-CHLOROPHENYL)METHYL]PIPERAZIN-1-YLMETHYL}QUINAZOLIN-4-YLAMINO)-5-DIMETHYLAMINOPENTANOIC ACID ISOBUTYL ESTER]
